The record followed here is PubChem BioAssay (NCI).

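Five compound concentrations were applied to cells in 96-well plates for 48 hours; endpoints were derived by simple linear interpolation of the resulting dose-response curve. Abbreviation: GI50, concentration required for 50% inhibition of growth. TGI denotes the concentration required for complete inhibition of growth.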

What all share (assay): NCI tumour cell line growth inhibition, 48 h
Test [1] has as its system RPMI-8226 leukemia.
Test [2] relates to SK-MEL-2 melanoma.
For test [3], the system named is CCRF-CEM leukemia.
In test [4] the test system is SNB-75 CNS.
For test [5], the system named is HCT-116 colon.
The test system of test [6] is SK-MEL-28 melanoma.
The subject of test [7] is SF-539 CNS.
The subject of test [8] is OVCAR-3 ovarian.
Test [9] relates to SK-MEL-5 melanoma.

Take `Cc1cc2c(=O)cc(-c3ccc(O)cc3)oc2c(C(=O)O)c1C`: the TGI in test [1], in test [2], in test [3], in [4], in [5] and in test [6] was greater than 100 µM each time. For the same compound, the TGI in [7], in test [8] and in test [9] was greater than 100 µM throughout.
Regarding `Cc1ccc(S(=O)OC2c3ccccc3Cc3ccccc32)cc1` (centres undefined), the TGI was greater than 100 µM in [1]; 34.6 µM in [4]; 35.8 µM in [5]; 33.8 µM in test [6]; 40.2 µM in test [7]; 44.5 µM in [8]. This compound also displayed a TGI in test [9] of 37.1 µM.
On to `S=C1NC(c2ccccc2)=NC(Cc2ccccc2)(c2ccccc2)N1c1ccccc1` (centres undefined), for which the TGI in test [1] is greater than 100 µM; in test [3], greater than 100 µM; in [4] it was 57.1 µM; in test [5], greater than 100 µM; in test [6], greater than 100 µM; in [7], greater than 100 µM. In addition, the TGI in [8] and in [9] was greater than 100 µM each time.
For the compound `CN(CC(=O)O)S(=O)(=O)c1ccc(Cl)cc1`, the TGI in test [1], in test [2], in [3], in test [4], in [6] and in test [7] was greater than 100 µM in each case. Moreover, the TGI in test [8] and in test [9] was greater than 100 µM each time.
For the compound `S=c1sc2sc(=S)sc2s1`, the TGI in test [1] was greater than 100 µM; in test [2], greater than 100 µM; in [3], greater than 100 µM; in test [4], 82.6 µM; in test [5], greater than 100 µM; in [7], 57.8 µM. Besides, the TGI in test [9] was greater than 100 µM.
On to `CC(=O)NS(=O)(=O)c1ccc(-n2nc(-c3ccccc3)cc2-c2cc(O)ccc2O)cc1`, for which the GI50 is greater than 100 µM in test [1]; greater than 100 µM in test [2]; greater than 100 µM in [3]; 27.2 µM in test [5]; greater than 100 µM in test [6]; greater than 100 µM in [8]. The GI50 in test [9] is greater than 100 µM. In addition, the TGI in [1], in [2], in [3], in test [5], in test [6] and in [8] was greater than 100 µM each time. Moreover, the TGI in test [9] was greater than 100 µM.
Consider `COC(=O)CCC(=O)C(CC(=O)OC)C(=O)CCC(=O)NCCc1ccccc1` (centres undefined), for which the TGI in test [1], in test [2], in [3], in test [4], in test [5] and in [6] was greater than 100 µM in each case. The TGI in test [7], in [8] and in test [9] was greater than 100 µM throughout.
As for `O=C([CH-]C(=O)c1ccccc1)c1ccccc1.O=C([CH-]C(=O)c1ccccc1)c1ccccc1.[CH2-]CCC.[CH2-]CCC.[Sn+4]`, the GI50 was 0.11 µM in [1]; 0.223 µM in test [2]; 1.04 µM in [4]; 0.917 µM in test [5]; 0.587 µM in [7]; 0.758 µM in test [8]. Further, the GI50 in test [9] was 0.25 µM. The TGI is 0.334 µM in test [1]; 0.883 µM in [2]; 2.29 µM in test [4]; 2.28 µM in test [5]; 1.94 µM in test [7]; 2.13 µM in test [8]. The TGI in [9] worked out at 1.21 µM.
`CN1C[C@@H]2CC(=O)CC[C@@H]2C[C@H]1C#N`: the TGI in test [1], in test [2], in test [3], in test [4], in test [5] and in test [8] was greater than 100 µM in each case. In addition, the TGI in test [9] is greater than 100 µM.
Take `O=C(O)c1ccc(NCn2nc(-c3ccccc3O)oc2=S)cc1O`: the GI50 in test [2] is 46.8 µM; in test [5] it was 44.9 µM; in test [6], greater than 100 µM; in test [8] it was greater than 100 µM; in test [9], greater than 100 µM. Further, the TGI in test [2], in [5], in test [6], in test [8] and in [9] was greater than 100 µM throughout.
With `CC1=CC=C2C(C)(C)CC[C@@H]3OC(=O)[C@H]1[C@]23C`, the TGI in test [2], in [3], in test [4], in test [5], in test [6] and in test [7] was greater than 100 µM each time. Moreover, the TGI in test [8] and in test [9] was greater than 100 µM throughout.
For the compound `COC(=O)c1oc([N+](=O)[O-])c(-c2ccccc2)c1-c1ccccc1`, the TGI in [1], in test [2], in [3], in test [4], in test [5] and in test [6] was greater than 100 µM each time. Moreover, the TGI in [7], in test [8] and in test [9] was greater than 100 µM throughout.
As for `Cc1ccccc1C(C#N)/C(=N/NC(N)=S)C(=O)Nc1c(C)cccc1C` (centres undefined), the TGI in [1], in [2], in test [3], in test [4], in test [5] and in test [6] was greater than 100 µM throughout. Moreover, the TGI in test [8] and in test [9] was greater than 100 µM in each case.
`Cc1ccc(NC(=O)CC2SC(=Nc3cccc(Cl)c3C)NC2=O)cc1` (centres undefined): the TGI in [1], in test [2], in test [3], in [4], in [6] and in test [7] was greater than 100 µM in each case. Moreover, the TGI was greater than 100 µM in test [8] and 96.5 µM in test [9].
`O=C(O)COc1ccc2c3c1C(=O)CCC3CO2` (centres undefined): the TGI in test [1], in test [2], in test [3], in test [5], in [6] and in test [7] was greater than 100 µM throughout. For the same compound, the TGI in test [8] and in test [9] was greater than 100 µM in each case.
